Measured values published in publication PMC5635026, “Homo-PROTACs: bivalent small-molecule dimerizers of the VHL E3 ubiquitin ligase to induce self-degradation” (Nature Communications, 2017).

Tests used:
[1] = system: Hypoxia response element (HRE)-luciferase reporter U2OS-HRE cells; test: HRE-luciferase reporter assay in U2OS-HRE cells; assay type: cell-based, Human; settings: different concentrations and times
Description: Luciferase assay. Assay was performed as described. Briefly, cells (HeLa and U2OS) stably expressing an HRE-luciferase reporter were treated for the indicated times with compounds. Cells were harvested in passive lysis buffer (Promega) and subjected to three freeze-thaw cycles. The soluble lysate fraction was used for assays, performed according to the manufacturer’s instructions (Promega) using a Berthold Lumat LB 9507 Luminometer. Results were normalized for protein concentration, and reported as mean ± s.e.m. from three biological replicates.

pVHL30 = pVHL30 (Homo sapiens, UniProt P40337); test: Co-treatment / competition experiments on CM11-induced pVHL30 degradation in HeLa cells; assay type: cell-based; set-up: endogenous in cells; host or cells: HeLa; settings: CM11 1 µM 4 h
Description: ML4924 and MG132 co-treatment. Cells were transferred in six-well plates with 5 × 10^5 cells per well in 2 ml media in order to achieve 80% confluence the day after. At t = 0, MLN4924 was added into the desired wells at 3 μM final concentration and 0.1% v/v of DMSO. DMSO (0.1% v/v final conc.) was added to the remaining wells in order to match identical conc. of vehicle in all wells. At t = 3 h, MG 132 was added into the desired wells at 50 μM final conc. and 0.1% v/v of DMSO. DMSO (0.1% v/v final conc.) was added to the remaining wells in order to achieve the same conc. of vehicle in all the wells. […] DMSO (0.1% v/v final conc.) was added to the remaining wells to obtain the same conc. of vehicle in all the wells. The total final concentration of DMSO was therefore 0.3% v/v. Plates were incubated for 4 h at 37 °C and 5% CO2 before harvesting. […] Plates were incubated for the desired time at 37 °C and 5% CO2 before harvesting.
Immunoblotting. Cells were lysed in lysis buffer (20 mM Tris pH 8, 150 mM NaCl, 1% Triton × 100) and a protease inhibitor cocktail (Roche) per 10 ml buffer. For protein extracts, the dishes were placed on ice. The media was aspirated and the tissue layer washed twice with ice-cold phosphate buffer saline (PBS). Lysis buffer (120 μl) was added and the cells detached from the surface with a cell scraper. After removal of the insoluble fraction by centrifugation, the protein concentration of the supernatant was determined by Pierce™ Coomassie (Bradford) Protein Assay Kit. Protein extracts were fractionated by SDS-PAGE on 4–12% Tris-Acetate NuPage® Novex® (Life Technologies) polyacrylamide gels and transferred to a nitrocellulose membrane using wet transfer. The membrane was then blocked with 5 % w/v Bovine serum albumin (BSA) in Tris-buffered saline (TBS) with 0.1% w/v Tween-20. For detecting proteins the following primary antibodies in the given concentrations were used: anti-β-Actin (Cell Signaling Technology, 4970S, 13E5) 1:2000, anti-VHL (Cell Signaling Technology, #68547) 1:1000, anti-Hif-1α (BD Biosciences, 610959, clone 54) 1:1,000, anti-hydroxy-HIF-1α (Hyp564) (Cell Signaling Techonology; #3434) 1:1,000, anti-PHD2 (Bethyl Laboratories; A300-322A) 1:1,000, anti-PHD3 (Bethyl Laboratories; A300-327A) 1:1000, anti-CRBN (Proteintech; 11435-1-AP) 1:1,000. Following incubation with a horseradish peroxidase-conjugated secondary antibody (Cell Signaling Technology), the signal was developed using enhanced chemiluminescence (ECL) Western Blotting Detection Kit (Amersham) on Amersham Hyperfilm ECL film (Amersham). Band quantification was performed using ImageJ software and reported as relative amount as ratio of the each protein band relative to the lane’s loading control. The values obtained were then normalized to 0.1% DMSO vehicle control. […]

pVHL30, sequence (P40337 whole entry): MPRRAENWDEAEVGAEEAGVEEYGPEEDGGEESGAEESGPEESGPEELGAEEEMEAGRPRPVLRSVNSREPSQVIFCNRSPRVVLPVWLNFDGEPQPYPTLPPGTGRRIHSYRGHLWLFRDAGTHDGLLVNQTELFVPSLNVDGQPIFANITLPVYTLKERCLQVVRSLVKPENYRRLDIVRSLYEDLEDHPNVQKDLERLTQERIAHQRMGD

CM11 activity after pre-treatment with IOX4 (pVHL30; IOX4 50 µM): did not impact CM11 activity
CM11-induced degradation of pVHL30 after pre-treatment with MG132 (pVHL30; MG132 50 µM): completely abrogated
CM11-induced degradation after pre-treatment with MLN4924 (pVHL30; MLN4924 3 µM): prevented
CM11-induced pVHL degradation after pre-treatment with VH032 (pVHL30; VH032 150 µM for 30 min): blocked pVHL degradation
SMILES: Cc1ncsc1-c1ccc(CNC(=O)[C@@H]2C[C@@H](O)CN2C(=O)[C@@H](NC(=O)COCCOCCOCCOCCOCCOCC(=O)N[C@H](C(=O)N2C[C@H](O)C[C@H]2C(=O)NCc2ccc(-c3scnc3C)cc2)C(C)(C)C)C(C)(C)C)cc1 [CM11, N ^1 ,N ^20-bis((S)-1-((2S,4R)-4-hydroxy-2-((4-(4-methylthiazol-5-yl)benzyl)carbamoyl)pyrrolidin-1-yl)-3,3-dimethyl-1-oxobutan-2-yl)-3,6,9,12,15,18-hexaoxaicosanediamide]
luciferase activity relative to DMSO control [1]: no increase
